Test results reported in US20180125805A1, “PROPHYLACTIC/THERAPEUTIC AGENT FOR VIRUS INFECTIONS WHICH COMPRISES ALA COMPOUND” (SBI Pharmaceuticals Co., Ltd., priority 2015, published 2018).
Several values for one entry are separate records, joined by “and”; a condition that tells them apart may be missing. Equal values may be shown once.

Test system: Hepatitis B virus (HBV) genotype C
Test: HBV DNA content in culture supernatants of HBV-infected PXB hepatocytes, quantitative PCR with TaqMan probe
Type: cell-based, human hepatitis B virus
Settings: for DNA content of HBV in the culture supernatants: PXB hepatocytes, replicates No. 1-3
Protocol: PXB hepatocytes prepared from “PXB-Mouse (registered trademark)” (manufactured by PhoenixBio) were used as test samples to examine the effect of a change in virus load by adding 5-ALA or the like to a medium. […] Therefore, PXB-Mouse is utilized as a human in vivo prediction model of hepatitis virus infections in pharmacokinetic studies.
Hepatitis B virus (HBV) genotype C was suspended in dHCGM medium (DMEM+10% FBS, 44 mM NaHCO3, 15 μg/mL L-proline, 0.25 μg/mL insulin, 50 […], 5 ng/mL EGF, 0.1 mM Asc-2P, 2% DMSO) containing 4% polyethylene glycol in the virus load of 2×10^6 per well to give 250 μL/well of a HBV infection medium. The sequence of HBV genotype C is disclosed in a public data bank such as GenBank and the accession number is AB246345.1.
5-ALA and sodium ferrous citrate (SFC) were blended in dHCGM medium at the concentrations shown in Table 1 below to prepare 250 μL each of test media. As a positive control medium, a medium prepared by dissolving 2.5 nM entecavir (manufactured by Santa Cruz Biotechnology, Inc.) in dHCGM medium was used.
PXB hepatocytes, which are primary cultured liver cells isolated by a two-step collagenase perfusion procedure (Yamasaki C, et al. Drug Metab Pharmacokinet. 2010, 25:539-550.) from 12- to 16-week-old PXB mice having a body weight of 11 g or more, were suspended in Dulbecco's modified Eagle's medium (DMEM) with 10% fetal bovine serum (FBS) (DMEM+10% FBS) containing 100 IU/mL penicillin G, 100 μg/mL streptomycin and 20 mM HEPES, seeded in a 24-well plate coated with type I collagen at a density of 4×10^5 cells/well, and incubated at 37° C. under 5% CO2. The next day, the medium was removed, and 500 μL of DMEM+10% FBS was then added to each well. Thereafter, the medium was removed again, 250 μL of the above-mentioned HBV infection medium or a non-infection medium and 250 μL each of the above-mentioned test medium were added to each well to provide 500 μL each of evaluation media. The evaluation media were incubated at 37° C. under 5% CO2 for 20 to 28 hours. On day 1, 2, 7, 12 and 17 after HBV virus infection, the media were replaced by 500 μL each of the above-mentioned evaluation media. On day 12, 17 and 22 after the virus infection, culture supernatants were collected and the DNA content of HBV in the supernatants was determined by a quantitative PCR assay with TaqMan probe. The incubation period after the virus infection was 22 days. The results are shown in the following Tables 2 and 3 and the graph of FIG. 1. The ordinate of FIG. 1 indicates the DNA content of HBV in the culture supernatants.

## NCC(=O)CCC(=O)O [ALA, 5-aminolevulinic acid]
ALA 1 mM, day 12 after virus infection
  DNA content of HBV in the culture supernatants: 6.0 log copies/mL and 6.1 log copies/mL and 5.8 log copies/mL
ALA 1 mM, day 17 after virus infection
  DNA content of HBV in the culture supernatants: 6.0 log copies/mL (2×) and 5.8 log copies/mL
ALA 1 mM, day 22 after virus infection
  DNA content of HBV in the culture supernatants: 6.1 log copies/mL and 5.9 log copies/mL and 6.0 log copies/mL

## C=C1[C@H](CO)[C@@H](O)C[C@@H]1n1cnc2c(=O)[nH]c(N)nc21 [ETV, entecavir, reference compound]
ETV 2.5 nM (positive control), day 12 after virus infection
  DNA content of HBV in the culture supernatants: 4.4 log copies/mL
ETV 2.5 nM (positive control), day 17 after virus infection
  DNA content of HBV in the culture supernatants: 4.2 log copies/mL and 4.8 log copies/mL and 4.1 log copies/mL
ETV 2.5 nM (positive control), day 22 after virus infection
  DNA content of HBV in the culture supernatants: 4.4 log copies/mL and 4.0 log copies/mL and 3.9 log copies/mL

## sodium ferrous citrate [SFC]
SFC 0.5 mM, day 12 after virus infection
  DNA content of HBV in the culture supernatants: 6.1 log copies/mL (2×) and 6.2 log copies/mL
SFC 500 μM, day 12 and 17 after the virus infection, P<0.05
  proliferation of HBV virus (FIG. 1): significantly inhibited
SFC 0.5 mM, day 17 after virus infection
  DNA content of HBV in the culture supernatants: 6.3 log copies/mL and 6.4 log copies/mL (2×)
SFC 0.5 mM, day 22 after virus infection
  DNA content of HBV in the culture supernatants: 6.5 log copies/mL
